Experimental data reported in patent US20220117958A1, “COMPOSITIONS AND METHODS FOR INHIBITING ACSS2” (THE TRUSTEES OF THE UNIVERSITY OF PENNSYLVANIA, priority 2018, published 2022).
In brackets after ≈: the same amount, converted by molar mass. Several values for one entry are separate records, joined by “and”; a condition that tells them apart may be missing. Identical values can stand only once. Marks after values point to notes of the source that are not given here.

Key:
[1] = Turbidity-based aqueous solubility; format: physicochemical; details: aqueous solution (composition not given), kinetic from dmso stock, read-out: highest soluble concentration
Text: (§1) Table 20 provides results of in vitro and in vivo pharmacokinetics performed for each of the represented compounds.

[2] = Protein binding via Rapid Equilibrium Dialysis - plasma; format: in vitro ADME; details: Rat (SD) plasma, 2 μM
Text: as §1

[3] = Microsomal stability assay (half-life), human; format: in vitro ADME; details: Human microsomes, read-out: Microsomal stability T1/2
Text: as §1

[4] = Microsomal stability assay (half-life), mouse; format: in vitro ADME; details: Mouse (CD1) microsomes, read-out: Microsomal stability T1/2
Text: as §1

[5] = Microsomal stability assay (half-life), rat; format: in vitro ADME; details: Rat (SD) microsomes, read-out: Microsomal stability T1/2
Text: as §1

[6] = In vivo PK, oral gavage, plasma; design: species or system Rat (SD); details: SD, rat, plasma, po, 5 mg/kg
Text: as §1
(§2) Tables 4 and 5 depict the summary of rat plasma sample concentrations after administration of ADG I-204. FIG. 6 provides a summary of rat plasma and brain concentrations.

[7] = In vivo PK, IV dose, plasma; design: species or system Rat (SD); details: for Plasma concentration, mean / Plasma concentration, individual animal: IV 1 mg/kg
Text: as §1, §2

[8] = In vivo PK, IV dose, Terminal - brain (brain availability); design: species or system Rat (SD); details: for Brain concentration, mean / Brain concentration, individual animal: IV 1 mg/kg
Procedure: Table 3 and FIG. 5 depict the brain availability of ADG I-204, ADG I-205, ADG I-206, and ADG I-207 after IV administration of 1 mg/kg dose.

H3K9ac = test: Western blot, differentiated CAD cell lysates, H3K9ac levels; format: cell-based; details: differentiated CAD cells, DMSO = 100.00%
Text: as §1

mice = test: Object-location memory paradigm; format: in vivo; details: recall phase, versus DMSO injected
Procedure: FIG. 29 depicts a graph showing the time spent interacting with an individual object relative to the total time spent interacting with all objects.
To assess hippocampus-dependent spatial memory, an object-location memory paradigm is used. Animals explore three different objects during training, and long-term memory is tested by re-exposure 24 hours later with one object moved to a different location. In training, control and inhibitor treated mice show no difference in exploration. During memory retrieval, control mice show increased exploration of the object that had been moved. By contrast, mice treated with an ACSS2 inhibitor are impaired in spatial object memory and display a lower discrimination index.
The conditions were blind as it relates to the injection (DMSO versus ADG-205c) and the locations of objects (those in the same location versus novel location). An online stopwatch interface was used that allowed use 3 simultaneous timer, one for each object. Each timer was stopped individually as the mouse interacted with a given object. […] Some mice remained stationary for substantial amounts of time relative to the others—some appearing apprehensive huddled in a corner, some spending time grooming.

[9] = In vivo PK, oral gavage, plasma; design: species or system Rat (SD); details: Rat, PO 5 mg/kg, BQL limit 1.00 ng/mL, listed as ADG I-205, 5 mg/kg

solubility [1]: 5 µM (≈ 2.05 µg/mL) | Protein binding, plasma: % Protein free [2]: 0.2915 % Protein free | half-life at 2 μM [3]: 27.8 min | half-life at 2 μM [4]: 4.72 min | half-life at 2 μM [5]: 11.6 min | concentration at 0.25 h ([6]; Rat (SD), 0.25 hr, BQL = below quantitation limit (1.00 ng/mL), read-out: Plasma concentration, mean): 83.5 ng/mL | concentration at 0.5 h ([6]; Rat (SD), 0.5 hr, BQL = below quantitation limit (1.00 ng/mL), read-out: Plasma concentration, mean): 371 ng/mL | concentration at 1 h ([6]; Rat (SD), 1 hr, BQL = below quantitation limit (1.00 ng/mL), read-out: Plasma concentration, mean): 641 ng/mL | concentration at 4 h ([6]; Rat (SD), 4 hr, BQL = below quantitation limit (1.00 ng/mL)): 693 ng/mL | concentration at 8 h ([6]; Rat (SD), 8 hr, BQL = below quantitation limit (1.00 ng/mL), read-out: Plasma concentration, mean): 354 ng/mL | concentration at 24 h ([6]; Rat (SD), 24 hr, BQL = below quantitation limit (1.00 ng/mL), read-out: Plasma concentration, mean): 3.06 ng/mL | concentration at 1 h ([6]; Rat, 1.00 hr, BQL limit 1.00 ng/mL, read-out: Plasma concentration, individual animal): 466 ng/mL | Plasma concentration, mean ([7]; Rat (SD), 8 hr, terminal, listed as ADG I-205, 1 mg/kg): 29 ng/mL | Plasma concentration, mean ([7]; Rat (SD), 24 hr, terminal, BQL limit 1.00 ng/mL (ADG I-205: 2.00 ng/mL), 1 mg/kg): 3 ng/mL | Plasma concentration, individual animal ([7]; Rat, 1.00 hr, terminal, listed as ADG I-205, 1 mg/kg): 895 ng/mL and 1190 ng/mL | Plasma concentration, individual animal ([7]; Rat, 4.00 hr, terminal, BQL limit 1.00 ng/mL (ADG I-205: 2.00 ng/mL), 1 mg/kg): 187 ng/mL and 92.3 ng/mL | Plasma concentration, individual animal ([7]; Rat, 8.00 hr, terminal, BQL limit 1.00 ng/mL (ADG I-205: 2.00 ng/mL), 1 mg/kg): 27.0 ng/mL and 31.9 ng/mL | Plasma concentration, individual animal ([7]; Rat, 24.0 hr, terminal, BQL limit 1.00 ng/mL (ADG I-205: 2.00 ng/mL), 1 mg/kg): BQL | concentration at 0.083 h ([7]; SD, rat, plasma, iv, 1 mg/kg, Rat (SD), 0.083 hr, terminal, read-out: Plasma concentration, mean): 1630 ng/mL | concentration at 0.5 h ([7]; SD, rat, plasma, iv, 1 mg/kg, Rat (SD), 0.500 hr, not a terminal time point (animals 4, 5 and 6)): 3790 ng/mL | concentration at 1 h ([7]; SD, rat, plasma, iv, 1 mg/kg, Rat (SD), 1 hr, terminal, read-out: Plasma concentration, mean): 1040 ng/mL | concentration at 4 h ([7]; SD, rat, plasma, iv, 1 mg/kg, Rat (SD), 4 hr, terminal, read-out: Plasma concentration, mean): 140 ng/mL | concentration at 8 h ([7]; SD, rat, plasma, iv, 1 mg/kg, Rat (SD), 8 hr, terminal, read-out: Plasma concentration, mean): 29.1 ng/mL | concentration at 24 h ([7]; SD, rat, plasma, iv, 1 mg/kg, Rat (SD), 24 hr, terminal, BQL limit 1.00 ng/mL (ADG I-205: 2.00 ng/mL), read-out: Plasma concentration, mean): 2.63 ng/mL | concentration at 1 h ([7]; SD, rat, plasma, iv, 1 mg/kg, Rat, 1.00 hr, terminal, read-out: Plasma concentration, individual animal): 1030 ng/mL | concentration at 8 h ([7]; SD, rat, plasma, iv, 1 mg/kg, Rat, 8.00 hr, terminal, BQL limit 1.00 ng/mL (ADG I-205: 2.00 ng/mL), read-out: Plasma concentration, individual animal): 28.5 ng/mL | concentration at 24 h ([7]; SD, rat, plasma, iv, 1 mg/kg, Rat, 24.0 hr, terminal, BQL limit 1.00 ng/mL (ADG I-205: 2.00 ng/mL), read-out: Plasma concentration, individual animal): 2.63 ng/mL | Brain concentration, mean ([8]; Rat (SD), 4 hr, BQL limit 10.0 ng/g (204, 206), 20.0 ng/g (205, 207), listed as ADG I-205, 1 mg/kg): 23 ng/g | Brain concentration, mean ([8]; Rat (SD), 8 hr, BQL limit 10.0 ng/g (204, 206), 20.0 ng/g (205, 207)): BQL | Brain concentration, mean ([8]; Rat (SD), 24 hr, BQL limit 10.0 ng/g (204, 206), 20.0 ng/g (205, 207)): BQL | Brain concentration, individual animal ([8]; Rat, 0.0830 hr, third animal received only 70% of the test article, listed as ADG I-205, 1 mg/kg): 544 ng/g and 487 ng/g and 213*** ng/g | Brain concentration, individual animal ([8]; Rat, 1.00 hr, listed as ADG I-205, 1 mg/kg): 102 ng/g and 171 ng/g | Brain concentration, individual animal ([8]; Rat, 4.00 hr, BQL limit 10.0 ng/g (204, 206), 20.0 ng/g (205, 207), listed as ADG I-205, 1 mg/kg): BQL | Brain concentration, individual animal ([8]; Rat, 8.00 hr, BQL limit 10.0 ng/g (204, 206), 20.0 ng/g (205, 207)): BQL | Brain concentration, individual animal ([8]; Rat, 24.0 hr, BQL limit 10.0 ng/g (204, 206), 20.0 ng/g (205, 207)): BQL | concentration at 0.083 h ([8]; SD, rat, brain, iv, 1 mg/kg, Rat (SD), 0.083 hr): 415 ng/g | concentration at 1 h ([8]; SD, rat, brain, iv, 1 mg/kg, Rat (SD), 1 hr, read-out: Brain concentration, mean): 135 ng/g | concentration at 4 h ([8]; SD, rat, brain, iv, 1 mg/kg, Rat (SD), 4 hr, BQL limit 10.0 ng/g (204, 206), 20.0 ng/g (205, 207), read-out: Brain concentration, mean): 23.4 ng/g | concentration at 1 h ([8]; SD, rat, brain, iv, 1 mg/kg, Rat, 1.00 hr, read-out: Brain concentration, individual animal): 132 ng/g | concentration at 4 h ([8]; SD, rat, brain, iv, 1 mg/kg, Rat, 4.00 hr, BQL limit 10.0 ng/g (204, 206), 20.0 ng/g (205, 207), read-out: Brain concentration, individual animal): 23.4 ng/g | Plasma concentration, individual animal ([9]; 0.250 hr): 30.4 ng/mL and 73.0 ng/mL and 147 ng/mL | Plasma concentration, individual animal ([9]; 0.500 hr): 145 ng/mL and 298 ng/mL and 669 ng/mL | Plasma concentration, individual animal ([9]; 1.00 hr): 550 ng/mL and 906 ng/mL | Plasma concentration, individual animal ([9]; 4.00 hr): 710 ng/mL and 430 ng/mL and 938 ng/mL | Plasma concentration, individual animal ([9]; 8.00 hr): 531 ng/mL and 235 ng/mL and 297 ng/mL | Plasma concentration, individual animal ([9]; 24.0 hr): 3.51 ng/mL and 1.48 ng/mL and 4.19 ng/mL
Structure (SMILES): COCCNC(=O)Nc1ccc2nc(-c3cccs3)c(-c3cccs3)nc2c1 [ADG-205c, 1-(2,3-di(thiophen-2-yl)quinoxalin-6-yl)-3-(2-methoxyethyl)urea]
Plasma concentration, individual animal ([7]; Rat, 0.0830 hr, terminal, third animal received only 70% of the test article, listed as ADG I-205, 1 mg/kg): 2310 ng/mL and 1700 ng/mL and 865*** ng/mL | Plasma concentration, individual animal ([7]; Rat, 0.500 hr, not terminal (animals 4, 5 and 6), listed as ADG I-205, 1 mg/kg): 8520** ng/mL and 1380 ng/mL and 1470 ng/mL | H3K9ac levels normalized to H3 and DMSO control (H3K9ac; 1 uM): 21.62% | H3K9ac levels normalized to H3 and DMSO control (H3K9ac; 5 uM): 17.18% | H3K9ac levels normalized to H3 and DMSO control (H3K9ac; 10 uM): 14.26% | H3K9ac levels normalized to H3 and DMSO control (H3K9ac; 20 uM): 21.52% | H3K9ac levels normalized to H3 and DMSO control (H3K9ac; 50 uM): 29.67% | H3K9ac levels normalized to H3 and DMSO control (H3K9ac; 100 uM): 16.42% | Preference for object moved to novel location (time interacting with object relative to all objects) (mice): very little preference for one object
